The target in series [1] is HIV-1 reverse transcriptase (HIV-1 RT) (Human immunodeficiency virus type 1 group M subtype B, UniProt P04585). The series is described as follows: Steady state kinetics of RNA-dependent DNA polymerization by HIV-1 RT. It is filed as biochemical. The procedure: In a first experiment, the reaction velocity was determined in the presence of different concentrations of compound B and different concentrations of dGTP while the concentration of the p(rC)p(dG) complex was constant.
In a second experimental the reaction velocity was determined in the presence of different concentrations of compound B and different concentrations of p(rC)p(dG) while the concentration of the substrate was constant.

Series [2] has as its system T-lymphocyte proliferation. The series is described as follows: Immune suppressive activity in mixed leukocyte cultures (MO-DC stimulators, allogenic CD4(+) T cells). It is filed as cell-based. The procedure: The immune suppressive activity of compound B was measured in mixed leukocyte cultures (MLC), with MO-DC as stimulators and allogenic CD4(+) T cells as responders. Cultures of 3×10^3 MO-DC and 100×10^3 T cells were set-up in 6-fold in a 96-well plate, in the presence or absence of a dilution series of compound B. In a first part of experiments, compound B was removed after 24 hours by washing and cells were cultured for an additional 4 days. In a second part of experiments, compound B remained present during the 5-day culture period. In both set-ups, 1 μCi of [methyl-^3H] thymidine (TRA. 120 from Amersham Pharmacia, Buckinghamshire, U.K.) was added to each well at the fifth day of culture. Plates were harvested 7 hours later and [methyl-^3H] thymidine incorporation was measured in a scintillation counter (Top Count™, Canberra-Packard, Zellik, Belgium) and expressed as counts per minute (CPM). The
(§1) Immune Suppressive Concentration (ISC50) is defined as the drug concentration inhibiting 50% of the lymphocyte proliferation. Cellular toxicity was evaluated microscopically by […] staining of co-cultures of MO-DC and allogeneic CD4(+) T cells , cultured for 5 days in the presence of a dilution series of drug. Part of the harvested cells was also used for flowcytometric analysis of lymphocyte blast formation and apopoptosis, based on forward and side scatter.

Series [3] relates to cervical epithelial cells (MEI180). The series is described as follows: MTT viability of cervical epithelial cells. It is filed as cell-based. The conditions noted are these: exposure 1 hr, 24 hrs or 5 days.
Another series concerns T cells. Type of series: cell-based. As to conditions: human, 5 days. The procedure:
as §1
Additional experiments were done to evaluate if inhibition of DNA synthesis corresponded to increased mortality of T cells or only to decreased blast formation.

The subject of series [4] is HTLV-IIIb infected CEM T cells. The series is described as follows: Antiviral activity in HTLV-IIIB infected CEM T cells (syncytium formation). Type of series: cell-based, HIV. The conditions noted are these: Human immunodeficiency virus 1, T-cell, continuous treatment, 50% inhibition of syncytium formation in CEM T cells. The procedure: For experiments with CEM T cells, we used the lymphotropic SI/X4 HIV strain HTLV-IIIB, originally obtained from R. C. Gallo and M. Popovic (NIH, Bethesda, Md.). For experiments with monocyte-derived dendritic cells (MO-DC), the monotropic NSI/R5 HIV strain Ba-L, kindly provided by the NIH AIDS Research and Reference Reagent Program (Rockville, Md) was used. Ba-L stocks were grown and tittered on PHA/IL-2-stimulated peripheral blood mononuclear cells (PBMC) in complete medium, containing RPMI-1640 (Bio-Whittaker, Verviers, Belgium) and 10% bovine calf serum (Hyclone, Utah, US) (Peden K. Virological and Molecular Genetic Techniques for Studies of Established HIV Isolates. 1995, 21-45). The supernatant of these cultures were directly used as cell-free virus to infect MO-DC. To prepare cell-associated HIV Ba-L, non-stimulated PBMC (2×10^6 cells/ml) were incubated overnight with 10^−2 MOI (=multiplicity of infection) of HIV Ba-L in complete medium. Afterwards, cells were extensively washed, frozen in liquid nitrogen and thawed on the day of infection.
As a reference system, CEM T cells (obtained from the American Type culture Collection in Rockville, Md.) were used under previously standardized conditions (Balzarini J, et al. AIDS Res Hum Retroviruses 10 Apr. 2000, 16: 517-528). […]

The next series has as its system Hemophilus ducreyi. The series is described as follows: In vitro antibacterial activity, Hemophilus ducreyi. Type of series: cell-based. From the text: (§2) Compatibility with lactobacilli and normal vaginal flora is an important requirement for a vaginal microbicide. Activity on pathogens of sexual transmitted diseases is an additional advantage. In in vitro tests for antibacterial activity of compound B, the following susceptibilities were found: • 33 different Lactobacillus species isolated from recto-vaginal cultures of pregnant women were studied.

For series [5], the system named is primary HIV strains (X4, CCR5 and X41R5). The series is described as follows: Efficacy against primary HIV strains in relevant cell lines. It is filed as cell-based.
In the next series the test system is HIV. The series is described as follows: Cervical explant model. Type of series: cell-based. The procedure:
Compound B, at a concentration of 10 nM, was able to block infection of the tissue and at a concentration of 100 nM the compound could prevent transfer of infectious virus from migratory dendritic cells to co-cultured T-cells.

For series [6], the system named is Neisseria gonorrhoea strains. The series is described as follows: In vitro antibacterial activity, Neisseria gonorrhoea. It is filed as cell-based. The conditions noted are these: some strains.
Text: as §2

A short description of series [7]: Cytotoxicity in CEM T cells. It is filed as cell-based. As to conditions: human; viability of CEM T cells decreased by 50%. The procedure: As a reference system, CEM T cells (obtained from the American Type culture Collection in Rockville, Md.) were used under previously standardized conditions (Balzarini J, et al. AIDS Res Hum Retroviruses 10 Apr. 2000, 16: 517-528). Briefly, cells were suspended at 250,000 cells/ml in RPMI-1640, supplemented with 10% fetal calf serum, 2 mM L-glutamine and 0.075% NaHCO3 and infected with HTLV-IIIB at ˜20 TCID50. 100 μl of a 5-fold dilution series of the drugs were immediately added to 100 μl of the infected cells in 200-μl well plates. After 4 to 5 days of incubation at 37° C., the cultures were examined for syncytium formation. The EC50 is the concentration required to inhibit syncytium formation by 50%. Cytotoxicity was evaluated and given as CC50 values, which is the concentration at which the viability of the CEM cells is decreased by 50%.

For series [8], the target named is HIV-1 reverse transcriptase (Human immunodeficiency virus type 1 group M subtype B, UniProt P04585). The series is described as follows: Cell-free HIV-1 reverse transcriptase inhibition. It is filed as biochemical. The conditions noted are these: inhibits HIV-1 reverse transcriptase activity by 50%, cell-free assay. The procedure:
Next to antiviral activity in CEM T cells, inhibition of HIV-1 reverse transriptase activity was measured in a cell-free assay, in which the 50% inhibitory concentration (IC50) of said compound is indicated (FIG. 1). The CEM system, using a lab T cell-line and the SI/X4labstrain HTLV-IIIb, was not directly relevant to sexual transmission, where primary T cells, dendritic cells and NSI/R5 viruses are involved. Therefore, we focussed on prevention of NSI/R5 HIV infection in MO-DC/CD4(+) T cell co-cultures.

Converted amounts (≈) assume the structure as drawn. Read-outs that look alike come from different tables or passages of the source.

As to `Cc1cc(C)c(Nc2ccnc(Nc3ccc(C#N)cc3)n2)c(C)c1` [compound B, 4-[[4-[(2,4,6-trimethylphenyl)amino]-2-pyrimidinyl]amino]benzonitrile], the “Nature of binding to HIV-1 RT” value in series [1] (against dGTP) and in [1] (against p(rC)p(dG)) was “non-competitive” each time. The Ki came to 33 nM in series [1] (against dGTP, p(rC)p(dG) constant) and 28 nM in [1] (against p(rC)p(dG), substrate constant). Moreover, the Michaelis-Menten constant (Km) in series [1] (dGTP varied, p(rC)p(dG) constant (Km of the substrate)) came out at 2.51 µM; in series [1] (p(rC)p(dG) varied, substrate constant (Km of primer/template)) it was 10.3 µM. The “ISC50 (50% Immune Suppressive Concentration)” value in [2] (drug present continuously during 5-day culture) is listed as “about 1,500 nM”; in series [2] (drug present continuously during 5-day culture, listed as Comp. B), 1,515 nM; in [2] (drug present during first 24 hours only), ~25,000 nM; in series [2] (drug present during first 24 hours only, listed as Comp. B), 24,886 nM. For the same compound, the results for the “Toxicity (viability, MTT assay)” value in series [3] (100 nM) and in series [3] (50 μM) were “some reduction of viability” and “no toxicity”, respectively. The “50% death rate of T cells” value in the series with T cells was 54,222 nM. Besides, the “Fifty percent inhibition of blast formation” value in the series with T cells was 3,916 nM. Moreover, in [4], it took 1 nM to reach a half-maximal effect (EC50). The MIC50 against Hemophilus ducreyi was 1 µg/mL (≈ 3.04 µM); against Hemophilus ducreyi (second value), 2 µg/mL (≈ 6.07 µM). For the same compound, the “Efficacy against primary HIV strains” value in [5] is given as “good efficacy”. In the series with HIV, the “Concentration able to block infection of the tissue” value is listed as 10 nM. In the series on HIV, the “Concentration preventing transfer of infectious virus from migratory dendritic cells to co-cultured T-cells” value is listed as 100 nM. For the same compound, in [6], the “Inhibition of Neisseria gonorrhoea strains” value was “inhibited at clinical relevant concentrations”. The same compound came in with a CC50 in series [7] of 1370 nM. The half-maximal inhibitory concentration (IC50) in [8] was 24 nM.

The values are drawn from patent US20200345733A1, “Microbicidal Pyrimidine or Triazine Containing Compounds” (Janssen Sciences Ireland UC, priority 2002, published 2020).
